Laboratory results taken from ChEMBL document CHEMBL1201862, “PubChem BioAssay data set” (2004).
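Five concentrations, 48 hours, 96-well plates. The concentration for 50% growth inhibition is given as GI50.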 Calls of active or inactive are those of the source. No stated cut-off is given here; in the data, active = GI50 up to about 1.1 µM and inactive = higher.

Experiments:
Experiment in all cases: NCI tumour cell line growth inhibition, 48 h
HCC 2998 = tested on: HCC 2998
HCT-116 = tested on: HCT-116
HCT-15 = tested on: HCT-15
Hs-578T = tested on: Hs-578T
KM12 = tested on: KM12
MOLT-4 = tested on: MOLT-4
NCI/ADR-RES = tested on: NCI/ADR-RES
OVCAR-3 = tested on: OVCAR-3
OVCAR-4 = tested on: OVCAR-4
OVCAR-5 = tested on: OVCAR-5
SF-268 = tested on: SF-268
SK-MEL-28 = tested on: SK-MEL-28
SK-MEL-5 = tested on: SK-MEL-5
SW-620 = tested on: SW-620
UACC-257 = tested on: UACC-257
UO-31 = tested on: UO-31
CCRF-CEM = tested on: CCRF-CEM
DMS-273 = tested on: DMS-273
M14 = tested on: M14
M19-MEL = tested on: M19-MEL

**Q.** With `CNC(=S)Nc1sc2c(c1C#N)CCCC2` as the molecule, how does the GI50 (HCC 2998) read?
**A.** > 75 µM (inactive)

**Q.** And the GI50 (HCT-116)?
**A.** > 75 µM (inactive)

**Q.** And the GI50 (HCT-15)?
**A.** > 75 µM

**Q.** What about the GI50 (Hs-578T) of the same molecule?
**A.** > 75 µM (inactive)

**Q.** What about the GI50 (KM12) of the same molecule?
**A.** > 75 µM (inactive)

**Q.** And the GI50 (MOLT-4)?
**A.** > 75 µM (inactive)

**Q.** And the GI50 (NCI/ADR-RES)?
**A.** > 75 µM (inactive)

**Q.** And the GI50 (OVCAR-3)?
**A.** > 75 µM (inactive)

**Q.** What about the GI50 (OVCAR-4) of the same molecule?
**A.** > 75 µM (inactive)

**Q.** And the GI50 (OVCAR-5)?
**A.** > 75 µM (inactive)

**Q.** And the GI50 (SF-268)?
**A.** > 75 µM (inactive)

**Q.** And the GI50 (SK-MEL-28)?
**A.** > 75 µM (inactive)

**Q.** What about the GI50 (SK-MEL-5) of the same molecule?
**A.** > 75 µM (inactive)

**Q.** And the GI50 (SW-620)?
**A.** > 75 µM (inactive)

**Q.** What about the GI50 (UACC-257) of the same molecule?
**A.** > 75 µM (inactive)

**Q.** What about the GI50 (UO-31) of the same molecule?
**A.** > 75 µM (inactive)

**Q.** With `CCOC(=O)N1C=NC23C(c4ccccc4)C(c4ccccc4)C12C(=O)N(C)C(=O)N3C` (centres undefined) as the molecule, how does the GI50 (CCRF-CEM) read?
**A.** > 100 µM (inactive)

**Q.** What about the GI50 (DMS-273) of the same molecule?
**A.** > 100 µM (inactive)

**Q.** What about the GI50 (HCC 2998) of the same molecule?
**A.** > 100 µM (inactive)

**Q.** And the GI50 (HCT-116)?
**A.** > 100 µM (inactive)

**Q.** What about the GI50 (HCT-15) of the same molecule?
**A.** > 100 µM

**Q.** And the GI50 (KM12)?
**A.** > 100 µM (inactive)

**Q.** What about the GI50 (M14) of the same molecule?
**A.** > 100 µM (inactive)

**Q.** And the GI50 (M19-MEL)?
**A.** > 100 µM (inactive)

**Q.** And the GI50 (MOLT-4)?
**A.** > 100 µM (inactive)

**Q.** What about the GI50 (OVCAR-3) of the same molecule?
**A.** > 100 µM (inactive)

**Q.** What about the GI50 (OVCAR-4) of the same molecule?
**A.** > 100 µM (inactive)

**Q.** What about the GI50 (OVCAR-5) of the same molecule?
**A.** > 100 µM (inactive)

**Q.** And the GI50 (SF-268)?
**A.** > 100 µM (inactive)

**Q.** What about the GI50 (SK-MEL-28) of the same molecule?
**A.** > 100 µM (inactive)

**Q.** What about the GI50 (SK-MEL-5) of the same molecule?
**A.** > 100 µM (inactive)

**Q.** What about the GI50 (SW-620) of the same molecule?
**A.** > 100 µM (inactive)

**Q.** And the GI50 (UACC-257)?
**A.** > 100 µM (inactive)

**Q.** And the GI50 (UO-31)?
**A.** 77.1 µM (inactive)

**Q.** `SC1=Nc2ccccc2-c2nc(-c3ccccc3)cc(-c3ccc(Br)cc3)c2C1` was tested. Which GI50 (CCRF-CEM) did it give?
**A.** 1.88 µM (inactive)

**Q.** What about the GI50 (HCC 2998) of the same molecule?
**A.** 3.17 µM (inactive)

**Q.** And the GI50 (HCT-116)?
**A.** 1.64 µM (inactive)

**Q.** What about the GI50 (HCT-15) of the same molecule?
**A.** 3.54 µM

**Q.** What about the GI50 (Hs-578T) of the same molecule?
**A.** 0.891 µM (active)

**Q.** And the GI50 (KM12)?
**A.** 12 µM (inactive)

**Q.** What about the GI50 (M14) of the same molecule?
**A.** 2.4 µM (inactive)

**Q.** And the GI50 (MOLT-4)?
**A.** 18.2 µM (inactive)

**Q.** And the GI50 (NCI/ADR-RES)?
**A.** 1.56 µM (inactive)

**Q.** What about the GI50 (OVCAR-3) of the same molecule?
**A.** 2.29 µM (inactive)

**Q.** And the GI50 (OVCAR-4)?
**A.** 0.433 µM (active)

**Q.** And the GI50 (OVCAR-5)?
**A.** 2.81 µM (inactive)

**Q.** And the GI50 (SF-268)?
**A.** 2.1 µM (inactive)

**Q.** What about the GI50 (SK-MEL-28) of the same molecule?
**A.** 11.2 µM (inactive)

**Q.** And the GI50 (SK-MEL-5)?
**A.** 8.3 µM (inactive)

**Q.** What about the GI50 (SW-620) of the same molecule?
**A.** 2.4 µM (inactive)

**Q.** And the GI50 (UACC-257)?
**A.** 3.15 µM (inactive)

**Q.** What about the GI50 (UO-31) of the same molecule?
**A.** 1.57 µM (inactive)

**Q.** What does the source list for `Cn1c(=O)c(-c2ccccc2)c(N=[N+]=[N-])c2ccccc21`?
**A.** GI50 (CCRF-CEM): 30.8 µM (inactive); GI50 (HCC 2998): 22.4 µM (inactive); GI50 (HCT-116): 69.5 µM (inactive); GI50 (HCT-15): 39.4 µM; GI50 (Hs-578T): 37.7 µM (inactive); GI50 (KM12): 37.8 µM (inactive); GI50 (M14): 63.2 µM (inactive); GI50 (MOLT-4): 20.9 µM (inactive); GI50 (NCI/ADR-RES): 28.4 µM (inactive); GI50 (OVCAR-3): 44.2 µM (inactive); GI50 (OVCAR-4): 56.5 µM (inactive); GI50 (OVCAR-5): > 100 µM (inactive); GI50 (SF-268): 39.5 µM (inactive); GI50 (SK-MEL-28): 66.4 µM (inactive); GI50 (SK-MEL-5): 53.2 µM (inactive); GI50 (SW-620): 48.3 µM (inactive); GI50 (UACC-257): > 100 µM (inactive); GI50 (UO-31): 46.8 µM (inactive)

**Q.** With `CC1CC[P+](c2ccccc2)(c2ccccc2)c2c1ccc1ccccc21` (centres undefined) as the molecule, how does the GI50 (CCRF-CEM) read?
**A.** 3.78 µM (inactive)

**Q.** What about the GI50 (DMS-273) of the same molecule?
**A.** 0.405 µM (active)

**Q.** What about the GI50 (HCC 2998) of the same molecule?
**A.** 9.48 µM (inactive)

**Q.** And the GI50 (HCT-116)?
**A.** 1.96 µM (inactive)

**Q.** And the GI50 (HCT-15)?
**A.** 31.9 µM

**Q.** What about the GI50 (Hs-578T) of the same molecule?
**A.** 1.46 µM (inactive)

**Q.** And the GI50 (KM12)?
**A.** 1.59 µM (inactive)

**Q.** And the GI50 (M14)?
**A.** 3.53 µM (inactive)

**Q.** What about the GI50 (M19-MEL) of the same molecule?
**A.** 1.69 µM (inactive)

**Q.** And the GI50 (MOLT-4)?
**A.** 5.66 µM (inactive)

**Q.** What about the GI50 (NCI/ADR-RES) of the same molecule?
**A.** > 100 µM (inactive)

**Q.** What about the GI50 (OVCAR-4) of the same molecule?
**A.** 6.76 µM (inactive)

**Q.** And the GI50 (OVCAR-5)?
**A.** 5.26 µM (inactive)

**Q.** What about the GI50 (SF-268) of the same molecule?
**A.** 4.35 µM (inactive)

**Q.** And the GI50 (SK-MEL-5)?
**A.** 0.83 µM (active)

**Q.** What about the GI50 (UACC-257) of the same molecule?
**A.** 0.385 µM (active)

**Q.** What about the GI50 (UO-31) of the same molecule?
**A.** 15.9 µM (inactive)

**Q.** Which results are given for `Cc1cc2c(cc1C)[n+]([O-])c(C#N)c(Cl)[n+]2[O-]`?
**A.** GI50 (CCRF-CEM): 4.92 µM (inactive); GI50 (HCC 2998): 11 µM (inactive); GI50 (HCT-116): 14.1 µM (inactive); GI50 (HCT-15): 4.35 µM; GI50 (Hs-578T): 15.9 µM (inactive); GI50 (MOLT-4): 5.05 µM (inactive); GI50 (NCI/ADR-RES): 15.8 µM (inactive); GI50 (OVCAR-3): 7.78 µM (inactive); GI50 (OVCAR-4): 13.9 µM (inactive); GI50 (OVCAR-5): 12.7 µM (inactive); GI50 (SF-268): 18.1 µM (inactive); GI50 (SK-MEL-28): 14.1 µM (inactive); GI50 (SK-MEL-5): 11.9 µM (inactive); GI50 (SW-620): 11.7 µM (inactive); GI50 (UACC-257): 13.8 µM (inactive); GI50 (UO-31): 12 µM (inactive)

**Q.** What does the source list for `CCCCCCCCCCCCCC(=O)OC1C(O)C(CO)OC(OC)C1NC(=O)N(CCCl)N=O` (centres undefined)?
**A.** GI50 (DMS-273): 71.1 µM (inactive); GI50 (HCC 2998): > 100 µM (inactive); GI50 (HCT-15): > 100 µM; GI50 (KM12): > 100 µM (inactive); GI50 (M14): > 100 µM (inactive); GI50 (M19-MEL): > 100 µM (inactive); GI50 (MOLT-4): 17.3 µM (inactive); GI50 (OVCAR-3): > 100 µM (inactive); GI50 (OVCAR-4): > 100 µM (inactive); GI50 (OVCAR-5): > 100 µM (inactive); GI50 (SF-268): 6.27 µM (inactive); GI50 (SK-MEL-28): > 100 µM (inactive); GI50 (SK-MEL-5): 45.2 µM (inactive); GI50 (SW-620): > 100 µM (inactive); GI50 (UACC-257): 28.8 µM (inactive); GI50 (UO-31): > 100 µM (inactive)
